{
  "source": "patent US8207211B2",
  "about": "“Photosensitizers for targeted photodynamic therapy” (The General Hospital Corporation, priority 2005, dated 2012)",
  "key": {"C. albicans": {"test_system": "C. albicans", "assay": "Photodynamic inactivation (PDI), CFU survival, white light (red light for TBO)", "format": "cell-based, Candida albicans", "settings": "10 μM; for PDT activity against C. albicans: white light up to 50 J/cm^2", "description": "(§1) Staphylococcus aureus (ATCC #35556), Escherichia coli (ATCC #25922), and Pseudomonas aeruginosa (ATCC #BAA-47; PAO1) were cultured in brain-heart infusion (BHI) broth (Difco, BD Diagnosttic Systems, Sparks, Md.) at 37° C. in aerobic conditions in a shaker at 150 rpm. Candida albicans (ATCC #18804) is grown in YM broth (Difco). Exponential cultures obtained by reculturing stationary overnight precultures were used for experiments.\n(§2) E. coli, P. aeruginosa, and S. aureus are grown in fresh medium for approximately 1 hr to a density of about 10^8 cells/ml; the OD values at 650 nm are 0.6, 0.8, and 0.8, respectively. C. albicans is grown for approximately 4 hr to an approximate density of 10^8 cells/ml, corresponding to an OD of 6 at 650 nm (measured at 10-fold dilution). Cells were used for experiments in the mid-log growth phase.\n(§3) A noncoherent lamp with filtered liquid light guides, e.g., a LumaCare™ LC122 lamp (MBG Technologies, Inc., Newport Beach, Calif.) was used to provide illumination of PS. More specifically, for illumination of fullerenes, a broad-band white light band pass filter (400-700 nm) was used, whereas for TBO, a band pass filter at 620-650 nm was used. The lamp was adjusted to give a uniform spot of about 4 cm diameter with an irradiance of 200 mW/cm^2, as measured with a power meter, e.g., a model DMM 199 meter with 201 Standard head (Coherent, Santa Clara, Calif.).\n(§4) Typically, derivatized fullerenes prepared as described above are dissolved in DMSO to provide stock solutions having final concentrations of about 5 mM. […] All stock solutions were stored in the dark at room temperature.\n(§5) In some experiments, for example in studies described in Examples below, suspensions of S. aureus cells (10^8 per ml) were incubated with derivatized fullerenes such as NI-1-3 and CI1-3 at a concentration of 100 μM in PBS at room temperature for 10 min. In other experiments, the bacterial suspension was centrifuged (4000×g for 10 min) after incubation and resuspended in fresh PBS before illumination; the latter procedure was referred to herein as a “wash.” E. coli, P. aeruginosa, and C. albicans were used at concentrations of about 10^8 cells per ml.\n(§6) Illumination was carried out from above on microbial cell suspensions in wells of a 24-well plate. Aliquots were removed at times corresponding to the delivery of calculated fluences of light, and were serially diluted in PBS and streaked on square BHI or YM agar plates according to the method of Jett et al. (Jett, B. D., Hatter, K. L., Huycke, M. M., and Gilmore, M. S. (1997). Simplified agar plate method for quantifying viable bacteria. Biotechniques 23, 648-650). Survival fractions were calculated with reference to cells incubated in PBS alone. Values on killing curves at 0 J/cm^2 represent the dark toxicity of the fullerenes or other PS tested. Control cells were treated with light and no PS and also analyzed for viability."}, "[1]": {"assay": "Solubility in DMSO stock solution", "format": "physicochemical", "settings": "lower stock concentration used than for the other fullerenes", "description": "as §4\nSix fullerene derivatives (NI1-3 and CI1-3) were evaluated. […] Concentration of fullerene derivatives used in the experiments varied between 1 and 100 μM."}, "S. aureus [2]": {"test_system": "S. aureus", "assay": "Photodynamic inactivation (PDI), CFU survival, white light (red light for TBO)", "format": "cell-based, Staphylococcus aureus", "settings": "for PDT activity against S. aureus: 10 min, white light up to 50 J/cm^2"}, "[3]": {"assay": "Octanol-water distribution coefficient", "format": "physicochemical", "settings": "1-octanol/DI water, absorbance at 330 nm", "description": "Each compound was dissolved in a minimum amount of DMSO: CI1 (0.9 mg in 200 μl), CI2 (5.3 mg in 200 μl), CI3 (5.4 mg in 200 μl). Ten ml of DI water and 10 ml of 1-octanol were added in each compound and vigorously shaken for 2 min. and the vials of the compounds were settled down overnight. The phases were separated and UV-spectra of each phase were analyzed. Distribution coefficient of each compound was determined using absorbance of aqueous phases and organic phases at 330 nm."}, "P. aeruginosa": {"test_system": "P. aeruginosa", "assay": "Photodynamic inactivation (PDI), CFU survival, white light (red light for TBO)", "format": "cell-based, Pseudomonas aeruginosa", "settings": "10 μM; for PDT activity against P. aeruginosa: white light up to 50 J/cm^2", "description": "as §1, §2, §3, §4, §5, §6"}, "[4]": {"test_system": "L929 murine fibroblast line", "assay": "Mammalian cell toxicity, MTT viability assay after illumination", "format": "cell-based, mouse", "settings": "10 μM, 10 min; for toxicity to L929 mammalian cells at fluences used for PDI of pathogens: white light up to 50 J/cm^2", "from_the_text": "Experiments to test the effect of functionalized fullerenes on mammalian cells can be performed in a suitable mammalian cell line. One such cell line is the L929 murine fibroblast line (ATCC #CCL1), a spontaneously transformed immortalized cell line established from the normal subcutaneous areolar and adipose tissue of a male C3H/An mouse (Earle, W. R., Schilling, E. L., Stark, T. H., Straus, N. P., Brown, M. F., and Shelton, E. (1943). Production of malignancy in vitro. IV. The mouse fibroblast cultures and changes seen in the living cells. J. Natl. Cancer Inst. 4, 165-212). In a suitable assay, these cells were cultured in Dulbecco's modified Eagle's medium (Sigma) at 37° C. in a humidified atmosphere containing 5% CO2. The medium is preferably modified by using 4 mM L-glutamine (containing 1.5 g/l sodium bicarbonate and 4.5 g/l glucose), 10% fetal bovine serum (FBS), 100 U/ml penicillin, and […] streptomycin. Cells were plated in 96-well cell culture plates, at a density of about 300 cells/well, and are allowed to attach for 24 hr.\nFullerenes and other PS, e.g., TBO, were added at a concentration of about 10 μM in 200 μl complete medium per well. After 10 min, fresh medium is added, and the cultures were illuminated with white light (for fullerenes) or with red light (for TBO). At the completion of the illumination period, cells were returned to the incubator for 24 hr. Cell viability can be determined, for example, by using the MTT-microculture tetrazolium assay, a method of assessing cellular response to PDT (Merlin, J. L., Azzi, S., Lignon, D., Ramacci, C., Zeghari, N., and Guillemin, F. (1992). MTT assays allow quick and reliable measurement of the response of human tumour cells to photodynamic therapy. Eur. J. Cancer 28A, 1452-1458. This assay involves the reduction of a colorless substrate, i.e., 3-[4,5-Dimethylthiazol-2-yl]-diphenyltetrazolium bromide (Sigma, St. Louis, […].) to an insoluble dark-blue formazan product which is formed in proportion to the amount of succinate dehydrogenase activity in the mitochondria of living cells. After incubation with MTT for periods ranging from 4 to 8 hr, the medium was aspirated from each well, and […] DMSO is added. The absorbance at 570 nm was read by a microplate reader, e.g., a Spectra Max™ 340 PC (Molecular Devices, Sunnyvale, Calif.). The fraction of cells surviving was calculated by dividing the mean absorbances of formazan produced from PDT-treated cells by the mean absorbances from dark controls incubated with PS and kept at room temperature for periods of time equal to the irradiation times."}, "E. coli": {"test_system": "E. coli", "assay": "Photodynamic inactivation (PDI), CFU survival, white light (red light for TBO)", "format": "cell-based, Escherichia coli", "settings": "10 μM; for change of E. coli killing in the presence of serum versus no serum: white light; for PDT activity against E. coli: white light up to 50 J/cm^2", "description": "as §1, §2, §3, §4, §5, §6"}, "S. aureus [5]": {"test_system": "S. aureus", "assay": "Photodynamic inactivation (PDI), CFU survival, white light (red light for TBO)", "format": "cell-based, Staphylococcus aureus", "description": "as §1, §2\nas §3, with “More specifically, for illumination of fullerenes, a broad-band white light band pass filter (400-700 nm) was used, whereas for TBO, a band pass filter at 620-650 nm was used.” left out, “Calif.). […]” for “Calif.).”\nIllumination was carried out from above on microbial cell suspensions in wells of a 24-well plate. […] Survival fractions were calculated with reference to cells incubated in PBS alone. […]"}, "[6]": {"settings": "10 min incubation, up to 16 J/cm2 of red light"}, "[7]": {"settings": "same fluence as for the fullerenes, presence or absence of serum"}},
  "data": [
    {"compound": "C[N+]1(C)CC2c3c4ccc5c6ccc7c8ccc9c%10ccc%11c(c%12c3c3c4c5c4c6c7c5c8c9c6c%10c%11c%12c7c3c4c5c67)C2C1", "note": "(stereo not drawn) [CI1]", "values": [
      {"measurement": "PDT activity against C. albicans", "setting": "C. albicans; 10 min", "value": "effectively killed"},
      {"measurement": "solubility in DMSO (stock solution)", "setting": "[1]", "value": "poorly soluble"},
      {"measurement": "PDT activity against S. aureus", "setting": "S. aureus [2]; 1 μM", "value": "effectively killed"},
      {"measurement": "dark toxicity to S. aureus", "setting": "S. aureus [2]; 10 and 1 μM, with a wash", "value": "nonexistent"},
      {"measurement": "Kow (octanol-water partition constant)", "setting": "[3]", "value": 140.80},
      {"measurement": "LogKow", "setting": "[3]", "value": 2.15},
      {"measurement": "PDT activity against P. aeruginosa", "setting": "P. aeruginosa; 10 min", "value": "effectively killed"},
      {"measurement": "killing of P. aeruginosa", "setting": "P. aeruginosa; 10 min, with a wash, white light up to 16 J/cm^2", "value": 2, "unit": "logs"},
      {"measurement": "toxicity to L929 mammalian cells at fluences used for PDI of pathogens", "setting": "[4]", "value": "not killed"},
      {"measurement": "change of E. coli killing in the presence of serum versus no serum", "setting": "E. coli; 10 min, 10% FBS, with a wash", "value": "unchanged"},
      {"measurement": "PDT activity against E. coli", "setting": "E. coli; 10 min", "value": "effectively killed"},
      {"measurement": "killing of E. coli", "setting": "E. coli; with a wash, 8 J/cm^2 white light", "value": 3, "unit": "logs"},
      {"measurement": "dark toxicity to S. aureus (killing)", "setting": "S. aureus [5]; 100 μM, 10 min, 0 J/cm^2", "value": 99, "unit": "%"},
      {"measurement": "PDI of S. aureus", "setting": "S. aureus [5]; 100, 50, 25, 10 and 1 μM, with a wash, white light 4-8 J/cm2", "value": "fluence-dependent loss of viability"}
    ]},
    {"compound": "C[N+]1(C)Cc2c(c3c4ccc5c6c7c(c8c9ccc%10c%11c%12c%13c(c2c2c3c3c4c5c4c6c8c5c9c%10c%12c6c(c%132)c3c4c56)C2C[N+](C)(C)CC%112)C[N+](C)(C)C7)C1", "note": "(stereo not drawn) [CI3]", "values": [
      {"measurement": "PDT activity against C. albicans", "setting": "C. albicans; 10 min", "value": "effectively killed"},
      {"measurement": "relative effectiveness in killing C. albicans", "setting": "C. albicans; 10 min, with a wash, white light", "value": "slightly more effective than CI2"},
      {"measurement": "PDT activity against S. aureus", "setting": "S. aureus [2]; 1 μM", "value": "effectively killed"},
      {"measurement": "light sufficient to kill 4-5 logs of S. aureus", "setting": "S. aureus [2]; 1 μM, with a wash, white light", "value": 1, "unit": "J/cm^2"},
      {"measurement": "Kow (octanol-water partition constant)", "setting": "[3]", "value": 0.37},
      {"measurement": "LogKow", "setting": "[3]", "value": "−0.43"},
      {"measurement": "PDT activity against P. aeruginosa", "setting": "P. aeruginosa; 10 min", "value": "effectively killed"},
      {"measurement": "toxicity to L929 mammalian cells at fluences used for PDI of pathogens", "setting": "[4]", "value": "not killed"},
      {"measurement": "change of E. coli killing in the presence of serum versus no serum", "setting": "E. coli; 10 min, 10% FBS, with a wash", "value": "about 1 log"},
      {"measurement": "PDT activity against E. coli", "setting": "E. coli; 10 min", "value": "effectively killed"},
      {"measurement": "killing of E. coli", "setting": "E. coli; with a wash, 2 J/cm^2 white light", "value": 6, "unit": "logs"}
    ]},
    {"compound": "Cc1cc2nc3ccc(N(C)C)cc3[s+]c2cc1N.[Cl-]", "note": "[TBO, toluidine blue O, reference compound]", "values": [
      {"measurement": "killing of C. albicans", "setting": "C. albicans; [6]", "value": "≤ 90", "unit": "%"},
      {"measurement": "killing of C. albicans", "setting": "C. albicans; [7]", "value": "less than 1 log"},
      {"measurement": "killing of S. aureus", "setting": "S. aureus [2]; 1 μM, 10 min incubation, up to 16 J/cm2 of red light", "value": "≤ 90", "unit": "%"},
      {"measurement": "killing of S. aureus", "setting": "S. aureus [2]; 1 μM, same fluence as for the fullerenes, presence or absence of serum", "value": "less than 1 log"},
      {"measurement": "killing of P. aeruginosa", "setting": "P. aeruginosa; [6]", "value": "≤ 90", "unit": "%"},
      {"measurement": "killing of P. aeruginosa", "setting": "P. aeruginosa; [7]", "value": "less than 1 log"},
      {"measurement": "dark toxicity toward L929 cells (killing)", "setting": "[4]; 10% FBS, with a wash", "value": "little dark toxicity"},
      {"measurement": "fluence at which the limit of the viability assay was reached (L929)", "setting": "[4]; 10% FBS, with a wash, red light", "value": 80, "unit": "J/cm^2"},
      {"measurement": "additional phototoxicity toward L929 cells", "setting": "[4]; 10% FBS, with a wash, white or red light up to 120 J/cm^2", "value": "pronounced light-dependent toxicity"},
      {"measurement": "PDI of E. coli in the presence of serum", "setting": "E. coli; 10 min, 10% FBS, with a wash, red light", "value": "almost ineffective"},
      {"measurement": "killing of E. coli", "setting": "E. coli; [6]", "value": "≤ 90", "unit": "%"}
    ]}
  ]
}
